From ChEMBL document CHEMBL4138123, “Design, synthesis and biological evaluation of novel pyrazolochalcones as potential modulators of PI3K/Akt/mTOR pathway and inducers of apoptosis in breast cancer cells” (Eur J Med Chem, 2017)

Assays:
Type in all cases: functional
Hs-578T [1] = experiment: Cytotoxicity against human Hs 578T cells assessed as cell growth at 0.01 uM after 48 hrs by sulforhodamine B assay relative to control; conditions: read-out: Activity
Hs-578T [2] = experiment: Cytotoxicity against human Hs 578T cells assessed as cell growth at 10 uM after 48 hrs by sulforhodamine B assay relative to control; conditions: read-out: Activity
OVCAR-5 [3] = experiment: Cytotoxicity against human OVCAR5 cells assessed as cell growth at 10 uM after 48 hrs by sulforhodamine B assay relative to control; conditions: OVCAR-5, 48 h, read-out: Activity
UACC-62 = experiment: Cytotoxicity against human UACC62 cells assessed as cell growth at 0.01 uM after 48 hrs by sulforhodamine B assay relative to control; conditions: UACC-62, 48 h, read-out: Activity
COLO 205 [4] = experiment: Cytotoxicity against human COLO205 cells assessed as cell growth at 0.01 uM after 48 hrs by sulforhodamine B assay relative to control; conditions: COLO 205, 48 h, read-out: Activity
SK-MEL-28 [5] = experiment: Cytotoxicity against human SK-MEL-28 cells assessed as cell growth at 0.1 uM after 48 hrs by sulforhodamine B assay relative to control; conditions: SK-MEL-28, 48 h, read-out: Activity
OVCAR-4 [6] = experiment: Cytotoxicity against human OVCAR4 cells assessed as cell growth at 0.1 uM after 48 hrs by sulforhodamine B assay relative to control; conditions: OVCAR-4, 48 h, read-out: Activity
OVCAR-5 [7] = experiment: Cytotoxicity against human OVCAR5 cells assessed as growth inhibition after 48 hrs by sulforhodamine B assay; conditions: OVCAR-5, 48 h
TK-10 [8] = experiment: Cytotoxicity against human TK10 cells assessed as cell growth at 100 uM after 48 hrs by sulforhodamine B assay relative to control; conditions: TK-10, 48 h, read-out: Activity
OVCAR-3 [9] = experiment: Cytotoxicity against human OVCAR3 cells assessed as cell growth at 10 uM after 48 hrs by sulforhodamine B assay relative to control; conditions: OVCAR-3, 48 h, read-out: Activity
M14 [10] = experiment: Cytotoxicity against human M14 cells assessed as cell growth at 0.01 uM after 48 hrs by sulforhodamine B assay relative to control; conditions: M14, 48 h, read-out: Activity
HCC 2998 = experiment: Cytotoxicity against human HCC2998 cells assessed as cell growth at 10 uM after 48 hrs by sulforhodamine B assay relative to control; conditions: HCC 2998, 48 h, read-out: Activity
SR = experiment: Cytotoxicity against human SR cells assessed as cell growth at 10 uM after 48 hrs by sulforhodamine B assay relative to control; conditions: read-out: Activity
OVCAR-8 = experiment: Cytotoxicity against human OVCAR8 cells assessed as cell growth at 10 uM after 48 hrs by sulforhodamine B assay relative to control; conditions: OVCAR-8, 48 h, read-out: Activity
KM12 = experiment: Cytotoxicity against human KM12 cells assessed as cell growth at 0.1 uM after 48 hrs by sulforhodamine B assay relative to control; conditions: KM12, 48 h, read-out: Activity
SK-MEL-28 [11] = experiment: Cytotoxicity against human SK-MEL-28 cells assessed as growth inhibition after 48 hrs by sulforhodamine B assay; conditions: SK-MEL-28, 48 h
786-0 [12] = experiment: Cytotoxicity against human 786-0 cells assessed as cell growth at 0.01 uM after 48 hrs by sulforhodamine B assay relative to control; conditions: 786-0, 48 h, read-out: Activity
MOLT-4 [13] = experiment: Cytotoxicity against human MOLT4 cells assessed as cell growth at 10 uM after 48 hrs by sulforhodamine B assay relative to control; conditions: MOLT-4, 48 h, read-out: Activity
HT-29 = experiment: Cytotoxicity against human HT-29 cells assessed as cell growth at 0.1 uM after 48 hrs by sulforhodamine B assay relative to control; conditions: HT-29, 48 h, read-out: Activity
DU-145 = experiment: Cytotoxicity against human DU145 cells assessed as growth inhibition after 48 hrs by sulforhodamine B assay; conditions: DU-145, 48 h
T47D = experiment: Cytotoxicity against human T47D cells assessed as cell growth at 100 uM after 48 hrs by sulforhodamine B assay relative to control; conditions: read-out: Activity
786-0 [14] = experiment: Cytotoxicity against human 786-0 cells assessed as cell growth at 100 uM after 48 hrs by sulforhodamine B assay relative to control; conditions: 786-0, 48 h, read-out: Activity
PC-3 = experiment: Cytotoxicity against human PC3 cells assessed as cell growth at 0.01 uM after 48 hrs by sulforhodamine B assay relative to control; conditions: PC-3, 48 h, read-out: Activity
IGROV-1 = experiment: Cytotoxicity against human IGROV1 cells assessed as growth inhibition after 48 hrs by sulforhodamine B assay; conditions: IGROV-1, 48 h
A549 = experiment: Cytotoxicity against human A549/ATCC cells assessed as cell growth at 1 uM after 48 hrs by sulforhodamine B assay relative to control; conditions: A549, 48 h, read-out: Activity
SK-MEL-5 [15] = experiment: Cytotoxicity against human SK-MEL-5 cells assessed as cell growth at 0.1 uM after 48 hrs by sulforhodamine B assay relative to control; conditions: SK-MEL-5, 48 h, read-out: Activity
MCF7 = experiment: Cytotoxicity against human MCF7 cells assessed as cell growth at 0.1 uM after 48 hrs by sulforhodamine B assay relative to control; conditions: MCF7, 48 h, read-out: Activity
SF-539 = experiment: Cytotoxicity against human SF539 cells assessed as cell growth at 0.01 uM after 48 hrs by sulforhodamine B assay relative to control; conditions: SF-539, 48 h, read-out: Activity
MOLT-4 [16] = experiment: Cytotoxicity against human MOLT4 cells assessed as cell growth at 0.01 uM after 48 hrs by sulforhodamine B assay relative to control; conditions: MOLT-4, 48 h, read-out: Activity
M14 [17] = experiment: Cytotoxicity against human M14 cells assessed as cell growth at 0.1 uM after 48 hrs by sulforhodamine B assay relative to control; conditions: M14, 48 h, read-out: Activity
COLO 205 [18] = experiment: Cytotoxicity against human COLO205 cells assessed as cell growth at 100 uM after 48 hrs by sulforhodamine B assay relative to control; conditions: COLO 205, 48 h, read-out: Activity
OVCAR-4 [19] = experiment: Cytotoxicity against human OVCAR4 cells assessed as cell growth at 1 uM after 48 hrs by sulforhodamine B assay relative to control; conditions: OVCAR-4, 48 h, read-out: Activity
SK-MEL-5 [20] = experiment: Cytotoxicity against human SK-MEL-5 cells assessed as cell growth at 0.01 uM after 48 hrs by sulforhodamine B assay relative to control; conditions: SK-MEL-5, 48 h, read-out: Activity
TK-10 [21] = experiment: Cytotoxicity against human TK10 cells assessed as cell growth at 0.1 uM after 48 hrs by sulforhodamine B assay relative to control; conditions: TK-10, 48 h, read-out: Activity
ACHN [22] = experiment: Cytotoxicity against human ACHN cells assessed as cell growth at 1 uM after 48 hrs by sulforhodamine B assay relative to control; conditions: read-out: Activity
OVCAR-3 [23] = experiment: Cytotoxicity against human OVCAR3 cells assessed as cell growth at 100 uM after 48 hrs by sulforhodamine B assay relative to control; conditions: OVCAR-3, 48 h, read-out: Activity
ACHN [24] = experiment: Cytotoxicity against human ACHN cells assessed as growth inhibition after 48 hrs by sulforhodamine B assay

Structure (SMILES): COc1ccc(C(=O)/C=C/c2cc(-c3cc(OC)c(OC)c(OC)c3)n[nH]2)cc1
- growth at 0.01 µM (Hs-578T [1]): 99%
- growth at 10 µM (Hs-578T [2]): 13%
- growth at 10 µM (OVCAR-5 [3]): -70%
- growth at 0.01 µM (UACC-62): 100%
- growth at 0.01 µM (COLO 205 [4]): 103%
- growth at 0.1 µM (SK-MEL-28 [5]): 104%
- growth at 0.1 µM (OVCAR-4 [6]): 94%
- LC50 (OVCAR-5 [7]): 7.6 µM
- TGI (OVCAR-5 [7]): 3.78 µM
- growth at 100 µM (TK-10 [8]): -20%
- growth at 10 µM (OVCAR-3 [9]): -72%
- growth at 0.01 µM (M14 [10]): 100%
- growth at 10 µM (HCC 2998): -83%
- growth at 10 µM (SR): 3%
- growth at 10 µM (OVCAR-8): -8%
- growth at 0.1 µM (KM12): 94%
- LC50 (SK-MEL-28 [11]): 9.23 µM
- TGI (SK-MEL-28 [11]): 4.42 µM
- growth at 0.01 µM (786-0 [12]): 98%
- growth at 10 µM (MOLT-4 [13]): -20%
- growth at 0.1 µM (HT-29): 102%
- TGI (DU-145): 2.83 µM
- growth at 100 µM (T47D): -9%
- growth at 100 µM (786-0 [14]): -48%
- growth at 0.01 µM (PC-3): 99%
- LC50 (IGROV-1): > 100 µM
- TGI (IGROV-1): 4.81 µM
- growth at 1 µM (A549): 86%
- growth at 0.1 µM (SK-MEL-5 [15]): 99%
- growth at 0.1 µM (MCF7): 93%
- growth at 0.01 µM (SF-539): 97%
- growth at 0.01 µM (MOLT-4 [16]): 103%
- growth at 0.1 µM (M14 [17]): 97%
- growth at 100 µM (COLO 205 [18]): -81%
- growth at 1 µM (OVCAR-4 [19]): 80%
- growth at 0.01 µM (SK-MEL-5 [20]): 100%
- growth at 0.1 µM (TK-10 [21]): 93%
- growth at 1 µM (ACHN [22]): 105%
- growth at 100 µM (OVCAR-3 [23]): -69%
- LC50 (ACHN [24]): 6.71 µM
- TGI (ACHN [24]): 3.63 µM

Structure (SMILES): COc1cc(-c2cc(/C=C/C(=O)c3ccc(N)cc3)[nH]n2)cc(OC)c1OC
- growth at 0.01 µM (Hs-578T [1]): 95%
- growth at 10 µM (Hs-578T [2]): 29%
- growth at 10 µM (OVCAR-5 [3]): -66%
- growth at 0.01 µM (UACC-62): 99%
- growth at 0.01 µM (COLO 205 [4]): 93%
- growth at 0.1 µM (SK-MEL-28 [5]): 95%
- growth at 0.1 µM (OVCAR-4 [6]): 105%
- GI50 (OVCAR-5 [7]): 1.78 µM
- LC50 (OVCAR-5 [7]): 7.91 µM
- TGI (OVCAR-5 [7]): 3.75 µM
- growth at 100 µM (TK-10 [8]): -81%
- growth at 10 µM (OVCAR-3 [9]): -71%
- growth at 0.01 µM (M14 [10]): 94%
- growth at 10 µM (HCC 2998): -86%
- growth at 10 µM (SR): -18%
- growth at 10 µM (OVCAR-8): -1%
- growth at 0.1 µM (KM12): 98%
- GI50 (SK-MEL-28 [11]): 1.86 µM
- LC50 (SK-MEL-28 [11]): 8.93 µM
- TGI (SK-MEL-28 [11]): 4.08 µM
- growth at 0.01 µM (786-0 [12]): 92%
- growth at 10 µM (MOLT-4 [13]): -5%
- growth at 0.1 µM (HT-29): 102%
- GI50 (DU-145): 1.65 µM
- TGI (DU-145): 4.05 µM
- CC50 (DU-145; read-out: LC50 (the source's name)): 9.95 µM
- growth at 100 µM (T47D): -47%
- growth at 100 µM (786-0 [14]): -90%
- growth at 0.01 µM (PC-3): 97%
- GI50 (IGROV-1): 3.2 µM
- LC50 (IGROV-1): > 100 µM
- TGI (IGROV-1): 10.5 µM
- growth at 1 µM (A549): 80%
- growth at 0.1 µM (SK-MEL-5 [15]): 95%
- growth at 0.1 µM (MCF7): 91%
- growth at 0.01 µM (SF-539): 92%
- growth at 0.01 µM (MOLT-4 [16]): 101%
- growth at 0.1 µM (M14 [17]): 101%
- growth at 100 µM (COLO 205 [18]): -78%
- growth at 1 µM (OVCAR-4 [19]): 62%
- growth at 0.01 µM (SK-MEL-5 [20]): 95%
- growth at 0.1 µM (TK-10 [21]): 100%
- growth at 1 µM (ACHN [22]): 79%
- growth at 100 µM (OVCAR-3 [23]): -93%
- GI50 (ACHN [24]): 1.61 µM
- LC50 (ACHN [24]): 8.4 µM
- TGI (ACHN [24]): 3.67 µM
